This passage reports TGI results from PubChem BioAssay (NCI).

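Dose response: 5 concentrations. Exposure: 48 h. Format: 96-well plates. Endpoint: linear interpolation; highest concentration if not reached. Definition used: TGI = concentration required for complete inhibition of growth.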 Where a SMILES comes first, the peptide text is derived from it. The star is where a group is joined. Cbz = O=C(OCc1ccccc1)*

Among the test systems are ACHN renal; BT-549 breast; HCT-15 colon; HL-60(TB) leukemia; HT29 colon; MALME-3M melanoma; MDA-MB-435; MOLT-4 leukemia; NCI-H226 lung; SK-OV-3 ovarian; SNB-19 CNS; UO-31 renal; CCRF-CEM leukemia.
Experiment in all cases: growth of human tumour cells (NCI), 48 h

For the compound `CCOC(=O)C(C)NC(=O)C(C)NC(=O)C(C)NC(=O)C(C)NC(=O)C(C)NC(=O)C(C)NC(=O)C(C)NC(=O)OCc1ccccc1` (centres undefined) (Cbz-AAAAAAA-OEt; configuration not given here), the TGI in the test on ACHN renal, with BT-549 breast, in the test on HCT-15 colon, in the test on HL-60(TB) leukemia, in the test on HT29 colon and in the test with MALME-3M melanoma was over 100 µM each time. For the same compound, the TGI with MDA-MB-435, in the test with MOLT-4 leukemia, with NCI-H226 lung, in the test on SK-OV-3 ovarian, in the test with SNB-19 CNS and in the test on UO-31 renal was over 100 µM each time.

Turning to `CC1(C)CC(=O)c2c(nc3ccc4ccccc4c3c2-c2ccc(NC(=O)CCCCC(=O)Nc3ccc(-c4c5c(nc6ccc7ccccc7c46)CC(C)(C)CC5=O)cc3)cc2)C1`, the TGI in the test on ACHN renal, in the test with BT-549 breast, with CCRF-CEM leukemia, in the test with HCT-15 colon, with HL-60(TB) leukemia and with HT29 colon was over 100 µM each time. Further, the TGI in the test with MDA-MB-435, with MOLT-4 leukemia, with NCI-H226 lung, in the test with SK-OV-3 ovarian, with SNB-19 CNS and in the test on UO-31 renal was over 100 µM each time.

Turning to `CC(=O)OC[C@@]12C[C@H]3C(=O)C(C)(C)C[C@H]3[C@]1(C)[C@@H](OC(C)=O)[C@]1(O)[C@H]([C@@H](OC(=O)c3ccccc3)[C@@H](C)[C@H]1OC(C)=O)[C@H]2OC(C)=O`, the TGI in the test on ACHN renal, in the test with BT-549 breast, in the test with CCRF-CEM leukemia, with HCT-15 colon, in the test on HL-60(TB) leukemia and in the test on MDA-MB-435 was over 20 µM in each case. Moreover, the TGI in the test with MOLT-4 leukemia, in the test on NCI-H226 lung, in the test on SK-OV-3 ovarian, in the test on SNB-19 CNS and in the test on UO-31 renal was over 20 µM in each case.

Regarding `COc1cc2c(cc1OC)CCN=C2`, the TGI with BT-549 breast, with CCRF-CEM leukemia, in the test on HCT-15 colon, with HL-60(TB) leukemia, in the test on HT29 colon and with MALME-3M melanoma was over 100 µM throughout. In addition, the TGI in the test with MDA-MB-435, with MOLT-4 leukemia, with NCI-H226 lung, with SK-OV-3 ovarian, with SNB-19 CNS and in the test on UO-31 renal was over 100 µM throughout.

In the case of `CC(C)(C)/C(O)=C\c1nc2cc(C(F)(F)F)ccc2[nH]c1=O`, the TGI in the test on ACHN renal is over 100 µM; in the test with BT-549 breast, over 100 µM; with CCRF-CEM leukemia it was 81.2 µM; in the test with HCT-15 colon, over 100 µM; in the test with HL-60(TB) leukemia, 19.8 µM; with HT29 colon, over 100 µM. The TGI in the test with MALME-3M melanoma, in the test with MDA-MB-435, in the test on NCI-H226 lung, in the test with SK-OV-3 ovarian, with SNB-19 CNS and in the test with UO-31 renal was over 100 µM each time.

Regarding `CCCc1c2c3ccccc3nc-2nc2ccccn12`, the TGI in the test with ACHN renal, with BT-549 breast, in the test on CCRF-CEM leukemia, in the test with HCT-15 colon, in the test with HL-60(TB) leukemia and in the test with HT29 colon was over 100 µM each time. Also, the TGI in the test with MALME-3M melanoma, in the test on MDA-MB-435, in the test with MOLT-4 leukemia, with SK-OV-3 ovarian, in the test with SNB-19 CNS and in the test on UO-31 renal was over 100 µM throughout.

For the compound `C#CCOC(=O)c1ccccc1OC(C)=O`, the TGI in the test on ACHN renal, with BT-549 breast, in the test with CCRF-CEM leukemia, with HCT-15 colon, in the test with HL-60(TB) leukemia and in the test with MDA-MB-435 was over 100 µM throughout. Besides, the TGI with MOLT-4 leukemia, with NCI-H226 lung, in the test with SK-OV-3 ovarian, in the test with SNB-19 CNS and in the test with UO-31 renal was over 100 µM each time.

Consider `NC(CCCCNc1ccn(C2OC(CO)C(O)C2O)c(=O)n1)C(=O)O` (centres undefined), for which the TGI in the test with ACHN renal, in the test with BT-549 breast, with CCRF-CEM leukemia, with HCT-15 colon, with HL-60(TB) leukemia and in the test with MALME-3M melanoma was over 100 µM throughout. Further, the TGI with MDA-MB-435, in the test with MOLT-4 leukemia, in the test on NCI-H226 lung, in the test with SNB-19 CNS and in the test with UO-31 renal was over 100 µM throughout.

As to `NNC(=O)c1n[nH]nc1SSc1n[nH]nc1C(=O)NN`, the TGI with ACHN renal, in the test with BT-549 breast, in the test on CCRF-CEM leukemia, in the test on HCT-15 colon, in the test on HL-60(TB) leukemia and in the test with HT29 colon was over 100 µM each time. In addition, the TGI in the test on MDA-MB-435, with MOLT-4 leukemia, with NCI-H226 lung, in the test on SK-OV-3 ovarian, in the test with SNB-19 CNS and in the test on UO-31 renal was over 100 µM each time.

Regarding `O=[N+]([O-])C1(C2([N+](=O)[O-])CCCC2)CCCC1`, the TGI in the test on BT-549 breast, in the test on CCRF-CEM leukemia, with HCT-15 colon, with HL-60(TB) leukemia, in the test with HT29 colon and in the test with MALME-3M melanoma was over 100 µM each time. The TGI with MDA-MB-435, in the test on MOLT-4 leukemia, in the test with NCI-H226 lung, with SK-OV-3 ovarian, in the test with SNB-19 CNS and with UO-31 renal was over 100 µM throughout.

Consider `CSc1c(C#N)c2n(c3ccccc3[n+]2C)c2ncccc12`, for which the TGI with ACHN renal was over 100 µM; with BT-549 breast it was 70.5 µM; in the test with CCRF-CEM leukemia, over 100 µM; in the test with HCT-15 colon, over 100 µM; in the test with HT29 colon, over 100 µM; in the test with MALME-3M melanoma it was 40.3 µM. Further, the TGI in the test on MDA-MB-435 was over 100 µM; in the test with MOLT-4 leukemia it was over 100 µM; with NCI-H226 lung it was 49.9 µM; in the test with SK-OV-3 ovarian it was over 100 µM; in the test with SNB-19 CNS it was over 100 µM; in the test with UO-31 renal it was 50.1 µM.
